Data as given in US20240382629A1, “HETEROBIVALENT AND HOMOBIVALENT AGENTS TARGETING FIBROBLAST ACTIVATION PROTEIN ALPHA AND/OR PROSTATE-SPECIFIC MEMBRANE ANTIGEN” (The Johns Hopkins University, priority 2021, published 2024).
Where “and” joins values, the source holds several entries; their conditions need not be identical. Identical values can stand only once. Like-named read-outs stand apart in the source and are kept apart here.

How the values were obtained:
[1] = Biodistribution of representative compounds ([^18F]Sri-07-56, [^18F]Sri-07-52, [^18F]JHU1221823, [^18F]FAPI-74), tissue % ID/g with carrier or blocker; format: in vivo, mouse; details: for Bladder % ID/g / Blood % ID/g / Brain % ID/g / Fat % ID/g / Femur % ID/g / Heart % ID/g / Kidney % ID/g / Large intestine % ID/g / Liver % ID/g / Lung % ID/g / Muscle % ID/g / Pancreas % ID/g / Salivery gland % ID/g / Small intestine % ID/g / Spleen % ID/g / Stomach % ID/g / Tumor % ID/g: individual mice
Description: Biodistribution of Representative Compounds

[2] = Biodistribution of representative compounds (Example 13), % ID/g in tissues of tumor-bearing mice; format: in vivo, mouse; details: 60 min, 2 μCi per mouse

N#CC1CCCN1C(=O)CNC(=O)c1ccnc2ccc(OCCCNC(=O)CCc3cn(CCC(NC(=O)c4ccc([18F])nc4)C(=O)NCCCCC(NC(=O)NC(CC(=O)O)C(=O)O)C(=O)O)nn3)cc12 (stereo not drawn) [[^18F]Sri-07-52]
Bladder % ID/g Mean ([1]; 30 min, ~100 μCi per mouse): 1.98 % ID/g | Blood % ID/g Mean ([1]; 30 min, ~100 μCi per mouse): 10.03 % ID/g | Brain % ID/g Mean ([1]; 30 min, ~100 μCi per mouse): 0.21 % ID/g | Fat % ID/g Mean ([1]; 30 min, ~100 μCi per mouse): 0.50 % ID/g | Femur % ID/g Mean ([1]; 30 min, ~100 μCi per mouse): 2.53 % ID/g | Heart % ID/g Mean ([1]; 30 min, ~100 μCi per mouse): 4.58 % ID/g | Kidney % ID/g Mean ([1]; 30 min, ~100 μCi per mouse): 2.71 % ID/g | Large intestine % ID/g Mean ([1]; 30 min, ~100 μCi per mouse): 3.78 % ID/g | Liver % ID/g Mean ([1]; 30 min, ~100 μCi per mouse): 3.20 % ID/g | Lung % ID/g Mean ([1]; 30 min, ~100 μCi per mouse): 6.18 % ID/g | Muscle % ID/g Mean ([1]; 30 min, ~100 μCi per mouse): 2.09 % ID/g | Pancreas % ID/g Mean ([1]; 30 min, ~100 μCi per mouse): 5.86 % ID/g | Salivary gland % ID/g Mean ([1]; 30 min, ~100 μCi per mouse): 13.84 % ID/g | Small intestine % ID/g Mean ([1]; 30 min, ~100 μCi per mouse): 4.36 % ID/g | Spleen % ID/g Mean ([1]; 30 min, ~100 μCi per mouse): 2.03 % ID/g | Stomach % ID/g Mean ([1]; 30 min, ~100 μCi per mouse): 1.71 % ID/g | Tumor % ID/g Mean ([1]; 30 min, ~100 μCi per mouse): 4.99 % ID/g | Bladder % ID/g ([1]; 30 min, ~100 μCi per mouse): 1.47 % ID/g and 2.50 % ID/g | Blood % ID/g ([1]; 30 min, ~100 μCi per mouse): 9.03 % ID/g and 11.04 % ID/g | Brain % ID/g ([1]; 30 min, ~100 μCi per mouse): 0.24 % ID/g and 0.19 % ID/g | Fat % ID/g ([1]; 30 min, ~100 μCi per mouse): 0.36 % ID/g and 0.64 % ID/g | Femur % ID/g ([1]; 30 min, ~100 μCi per mouse): 2.15 % ID/g and 2.91 % ID/g | Heart % ID/g ([1]; 30 min, ~100 μCi per mouse): 4.65 % ID/g and 4.52 % ID/g | Kidney % ID/g ([1]; 30 min, ~100 μCi per mouse): 2.62 % ID/g and 2.80 % ID/g | Large intestine % ID/g ([1]; 30 min, ~100 μCi per mouse): 5.82 % ID/g and 1.74 % ID/g | Liver % ID/g ([1]; 30 min, ~100 μCi per mouse): 3.03 % ID/g and 3.36 % ID/g | Lung % ID/g ([1]; 30 min, ~100 μCi per mouse): 6.53 % ID/g and 5.82 % ID/g | Muscle % ID/g ([1]; 30 min, ~100 μCi per mouse): 2.07 % ID/g and 2.12 % ID/g | Pancreas % ID/g ([1]; 30 min, ~100 μCi per mouse): 6.54 % ID/g and 5.18 % ID/g | Salivery gland % ID/g ([1]; 30 min, ~100 μCi per mouse): 11.28 % ID/g and 16.41 % ID/g | Small intestine % ID/g ([1]; 30 min, ~100 μCi per mouse): 4.18 % ID/g and 4.54 % ID/g | Spleen % ID/g ([1]; 30 min, ~100 μCi per mouse): 2.06 % ID/g and 1.99 % ID/g | Stomach % ID/g ([1]; 30 min, ~100 μCi per mouse): 1.72 % ID/g and 1.71 % ID/g | Tumor % ID/g ([1]; 30 min, ~100 μCi per mouse): 5.57 % ID/g and 4.40 % ID/g | Bladder % ID/g Mean ([1]; 120 min, 20 μCi per mouse): 1.66 % ID/g | Blood % ID/g Mean ([1]; 120 min, 20 μCi per mouse): 5.44 % ID/g | Brain % ID/g Mean ([1]; 120 min, 20 μCi per mouse): 0.22 % ID/g | Fat % ID/g Mean ([1]; 120 min, 20 μCi per mouse): 0.56 % ID/g | Femur % ID/g Mean ([1]; 120 min, 20 μCi per mouse): 2.17 % ID/g | Heart % ID/g Mean ([1]; 120 min, 20 μCi per mouse): 3.20 % ID/g | Kidney % ID/g Mean ([1]; 120 min, 20 μCi per mouse): 2.71 % ID/g | Large intestine % ID/g Mean ([1]; 120 min, 20 μCi per mouse): 1.08 % ID/g | Liver % ID/g Mean ([1]; 120 min, 20 μCi per mouse): 2.33 % ID/g | Lung % ID/g Mean ([1]; 120 min, 20 μCi per mouse): 3.15 % ID/g | Muscle % ID/g Mean ([1]; 120 min, 20 μCi per mouse): 1.53 % ID/g | Pancreas % ID/g Mean ([1]; 120 min, 20 μCi per mouse): 3.98 % ID/g | Salivary gland % ID/g Mean ([1]; 120 min, 20 μCi per mouse): 7.20 % ID/g | Small intestine % ID/g Mean ([1]; 120 min, 20 μCi per mouse): 2.64 % ID/g | Spleen % ID/g Mean ([1]; 120 min, 20 μCi per mouse): 1.51 % ID/g | Stomach % ID/g Mean ([1]; 120 min, 20 μCi per mouse): 1.11 % ID/g | Tumor % ID/g Mean ([1]; 120 min, 20 μCi per mouse): 1.96 % ID/g | Bladder % ID/g ([1]; 120 min, 20 μCi per mouse): 0.97 % ID/g and 2.35 % ID/g | Blood % ID/g ([1]; 120 min, 20 μCi per mouse): 4.70 % ID/g and 6.19 % ID/g | Brain % ID/g ([1]; 120 min, 20 μCi per mouse): 0.32 % ID/g and 0.13 % ID/g | Fat % ID/g ([1]; 120 min, 20 μCi per mouse): 0.74 % ID/g and 0.38 % ID/g | Femur % ID/g ([1]; 120 min, 20 μCi per mouse): 1.99 % ID/g and 2.35 % ID/g | Heart % ID/g ([1]; 120 min, 20 μCi per mouse): 3.20 % ID/g and 3.21 % ID/g | Kidney % ID/g ([1]; 120 min, 20 μCi per mouse): 1.66 % ID/g and 3.77 % ID/g | Large intestine % ID/g ([1]; 120 min, 20 μCi per mouse): 0.85 % ID/g and 1.30 % ID/g | Liver % ID/g ([1]; 120 min, 20 μCi per mouse): 2.28 % ID/g and 2.43 % ID/g | Lung % ID/g ([1]; 120 min, 20 μCi per mouse): 2.65 % ID/g and 3.65 % ID/g | Muscle % ID/g ([1]; 120 min, 20 μCi per mouse): 1.58 % ID/g and 1.47 % ID/g | Pancreas % ID/g ([1]; 120 min, 20 μCi per mouse): 3.00 % ID/g and 4.96 % ID/g | Salivery gland % ID/g ([1]; 120 min, 20 μCi per mouse): 6.20 % ID/g and 8.21 % ID/g | Small intestine % ID/g ([1]; 120 min, 20 μCi per mouse): 2.55 % ID/g and 2.72 % ID/g | Spleen % ID/g ([1]; 120 min, 20 μCi per mouse): 1.54 % ID/g and 1.49 % ID/g | Stomach % ID/g ([1]; 120 min, 20 μCi per mouse): 1.00 % ID/g and 1.23 % ID/g | Tumor % ID/g ([1]; 120 min, 20 μCi per mouse): 1.67 % ID/g and 2.25 % ID/g

N#CC1CCCN1C(=O)CNC(=O)c1ccnc2ccc(OCCCNC(=O)CCc3cn(CCC(NC(=O)c4ccc([18F])nc4)C(=O)NCCNC(=O)CN4CCN(CC(=O)O)CCN(CC(=O)O)CCN(CC(=O)O)CC4)nn3)cc12 (stereo not drawn) [[^18F]Sri-07-56]
% ID/g Blood (individual mouse) [2]: 10.48 % ID/g and 7.56 % ID/g | % ID/g Heart (individual mouse) [2]: 4.72 % ID/g and 3.07 % ID/g | % ID/g Liver (individual mouse) [2]: 2.82 % ID/g and 2.25 % ID/g | % ID/g Lung (individual mouse) [2]: 5.06 % ID/g and 3.66 % ID/g | % ID/g Mean Blood [2]: 9.02 % ID/g | % ID/g Mean Heart [2]: 3.90 % ID/g | % ID/g Mean Liver [2]: 2.54 % ID/g | % ID/g Mean Lung [2]: 4.36 % ID/g | % ID/g Mean Spleen [2]: 1.91 % ID/g | % ID/g Spleen (individual mouse) [2]: 2.19 % ID/g and 1.64 % ID/g | Bladder % ID/g Mean [1]: 0.99 % ID/g | Brain % ID/g Mean [1]: 0.22 % ID/g | Fat % ID/g Mean [1]: 0.89 % ID/g | Femur % ID/g Mean [1]: 1.32 % ID/g | Kidney % ID/g Mean [1]: 2.10 % ID/g | Large intestine % ID/g Mean [1]: 0.93 % ID/g | Muscle % ID/g Mean [1]: 0.90 % ID/g | Pancreas % ID/g Mean [1]: 2.18 % ID/g | Salivary gland % ID/g Mean [1]: 3.55 % ID/g | Small intestine % ID/g Mean [1]: 1.73 % ID/g | Stomach % ID/g Mean [1]: 0.86 % ID/g | Tumor % ID/g Mean [1]: 1.78 % ID/g | Bladder % ID/g [1]: 0.86 % ID/g and 1.12 % ID/g | Brain % ID/g [1]: 0.28 % ID/g and 0.16 % ID/g | Fat % ID/g [1]: 0.38 % ID/g and 1.40 % ID/g | Femur % ID/g [1]: 1.63 % ID/g and 1.01 % ID/g | Kidney % ID/g [1]: 2.24 % ID/g and 1.96 % ID/g | Large intestine % ID/g [1]: 0.90 % ID/g and 0.95 % ID/g | Muscle % ID/g [1]: 0.74 % ID/g and 1.06 % ID/g | Pancreas % ID/g [1]: 2.39 % ID/g and 1.96 % ID/g | Salivery gland % ID/g [1]: 4.40 % ID/g and 2.70 % ID/g | Small intestine % ID/g [1]: 2.06 % ID/g and 1.40 % ID/g | Stomach % ID/g [1]: 1.05 % ID/g and 0.67 % ID/g | Tumor % ID/g [1]: 1.86 % ID/g and 1.70 % ID/g
